The text below walks through data of patent publication US10023560B2, “Crystalline salt form of (S)-(2-(6 chloro-7-methyl-1H-benzo[d]imidazol-2-yl)-2-methylpyrrolidin-1-yl)(5-methoxy-2-(2H-1,2,3-triazol-2-yl)phenyl)methanone as orexin receptor antagonist” (priority 2013, dated 2018).

Data set [1] concerns rat. The settings on record: animal model of conditioned fear; cited from earlier work.
Data set [2] has as its system humans. The settings on record: indication primary insomnia; cited from earlier work.
Data set [3] concerns rats. The settings on record: cited from earlier work.
Data set [4] relates to rat. The conditions noted are these: cited from earlier work.
Data set [5] deals with rats. The settings on record: rats treated with the compound; cited from earlier work.
Data set [6] concerns fasted hungry rats. The settings on record: fasted hungry rats exposed to food odors; cited from earlier work.
Data set [7] has as its system mouse. The conditions noted are these: mouse model of depression, administered chronically; cited from earlier work.
Data set [8] deals with amyloid precursor protein transgenic mice. The conditions noted are these: after acute sleep restriction; cited from earlier work.
Data set [9] concerns rat. The conditions noted are these: rat model; cited from earlier work.
Data set [10] is described as follows: Gravimetric vapour sorption (GVS) analysis. It is filed as physicochemical. As to the method:
Gravimetric Vapour Sorption (GVS) Analysis
The sample was allowed to equilibrate at 40% RH before starting a pre-defined humidity program (40-0-95-0-95-40% RH, steps of 5% ΔRH and with a maximal equilibration time of 24 hours per step were applied. About 20 to 30 mg of each sample was used. The hygroscopic classification is done according to the European Pharmacopeia Technical Guide (1999, page 86), e.g., slightly hygroscopic: increase in mass is less than 2% and equal to or greater than 0.2% mass/mass; hygroscopic: increase in mass is less than 15% and equal to or greater than 2% mass/mass. The mass change between 40% relative humidity and 80% relative humidity in the first adsorption scan is considered.

Data set [11] concerns Wistar rats. Description: Sedative effects: EEG, EMG and behavioural indices of alertness by radiotelemetry. It is filed as in vivo. The conditions noted are these: 30 mg/kg po, effects analyzed over 6 hours. As to the method: Sedative Effects: EEG, EMG and Behavioural Indices of Alertness Recorded by Radiotelemetry In Vivo in Wistar Rats.
Electroencephalography (EEG) and Electromyography (EMG) signals were measured by telemetry using TL11M2-F20-EET miniature radiotelemetric implants (Data Science Int.) with two pairs of differential leads.
Surgical implantation was performed under general anesthesia with Ketamin/Xylazin, for cranial placement of one differential pair of EEG electrodes and one pair of EMG leads inserted in either side of the muscles of the neck. After surgery, rats recovered in a thermoregulated chamber and received analgesic treatment with subcutaneous buprenorphine twice a day for 2 d. They were then housed individually and allowed to recover for a minimum of 2 weeks. Thereafter, rats—in their home cage—were placed in a ventilated sound-attenuating box, on a 12-h light/12-h dark cycle, for acclimatization before continuous EEG/EMG recordings started. The telemetric technology that we used in this study allows accurate and stress-free acquisition of biosignals in rats placed in their familiar home cage environment, with no recording leads restricting their movements. Variables analyzed included four different stages of vigilance and sleep, spontaneous activity in the home cage and body temperature. Sleep and wake stages were evaluated using a rodent scoring software (Somnologica Science) directly processing electrical biosignals on 10 s contiguous epochs. The scoring is based on frequency estimation for EEG and amplitude discrimination for EMG and locomotor activity. Using these measurements, the software determines the probability that all components within each epoch best represent active waking (AW), quiet waking (QW), non-REM-sleep (NREM) or REM-sleep (REM). The percentage of total time spent in AW, QW, NREM- and REM-sleep was calculated per 12 h light or dark period. The latency to the onset of the first significant NREM- and REM-sleep episodes and the frequency and duration of those episodes were also calculated. […] All variables were subsequently recorded for 12 h following administration of the orexin receptor antagonist.

Data set [12] relates to rodents. The settings on record: cited from earlier work.
Data set [13] has as its system rodents. The settings on record: induced by repeated amphetamine administration in rodents; cited from earlier work.

SMILES strings stand for the structures.

With `CNC(=O)[C@@H](c1ccccc1)N1CCc2cc(OC)c(OC)cc2[C@@H]1CCc1ccc(C(F)(F)F)cc1` [(2R)-2-{(1S)-6,7-dimethoxy-1-[2-(4-trifluoromethyl-phenyl)-ethyl]-3,4-dihydro-1H-isoquinolin-2-yl}-N-methyl-2-phenyl-acetamide], the “activity in rat fear-potentiated startle paradigm” value in data set [1] was “active”. In addition, the clinical efficacy result in [2] is given as “showed clinical efficacy”. Moreover, in data set [3], the “cardiovascular responses to conditioned fear and novelty exposure” value is listed as “attenuated”. In data set [4], the “alertness (active wake and locomotion)” value was “decrease alertness”; the “time spent in REM and NREM sleep” value is on record as “dose-dependently increase”. Also, the “declarative and non-declarative learning and memory” value in data set [5] is reported as “intact”. Besides, in data set [6], the “natural activation induced by orexin A” value is listed as “attenuate”. Further, in data set [7], the antidepressant-like activity result is reported as “induce antidepressant-like activity”. In data set [8], the “brain levels of amyloid-beta (Aβ) and Aβ plaque deposition” value is recorded as “decreased”. Moreover, the “activity in nicotine self-administration” value in data set [9] was “displayed pharmacological activity”.
Turning to `COc1ccc(-n2nccn2)c(C(=O)N2CCC[C@@]2(C)c2nc3ccc(Cl)c(C)c3[nH]2)c1.Cl` [COMPOUND hydrochloride, (S)-(2-(6-chloro-7-methyl-1H-benzo[d]imidazol-2-yl)-2-methylpyrrolidin-1-yl)(5-methoxy-2-(2H-1,2,3-triazol-2-yl)phenyl)methanone hydrochloride], the Hygroscopicity classification result in data set [10] (25° C., European Pharmacopeia Technical Guide classification) was “Non hygroscopic (mass change smaller then”. In data set [10] (between 40% and 80% relative humidity, first adsorption scan, 25° C.), the “Hygroscopicity: mass change” value was less than 0.1%. The “Sorption behavior between cycles” value in data set [10] (first to second cycle) is “Reproducible, cycle independent”.
In the case of `COc1ccc(-n2nccn2)c(C(=O)N2CCC[C@@]2(C)c2nc3c(C)c(Cl)ccc3[nH]2)c1` [COMPOUND, (S)-(2-(6-chloro-7-methyl-1H-benzo[d]imidazol-2-yl)-2-methylpyrrolidin-1-yl)(5-methoxy-2-(2H-1,2,3-triazol-2-yl)phenyl)methanone], the “Hygroscopicity: sorption of moisture” value in data set [10] (humidity program 40-0-95-0-95-40% RH, 25° C.) is not above 2.7 % moisture mass/mass. Also, in data set [11], the “effect on NREM sleep compared to vehicle controls” value is “+27%”, the “effect on REM sleep compared to vehicle controls” value was “+53%”, the “effect on active wake compared to vehicle controls” value is −24% and the “effect on home cage activity compared to vehicle controls” value is listed as −31%.
With `Cn1c(SCC(=O)N2CCC[C@H]2C(=O)Nc2ccccc2-c2ccccc2)nc2ccccc21` [N-biphenyl-2-yl-1-{[(1-methyl-1H-benzimidazol-2-yl)sulfanyl]acetyl}-L-prolinamide], the “nicotine-reinstatement for a conditioned reinforcer” value in data set [12] is recorded as “inhibited”. Besides, the “behavioral (locomotor sensitization) and molecular (transcriptional responses) changes” value in data set [13] is given as “reduced”.
